These results are taken from ChEMBL document CHEMBL1135252, “Design and synthesis of antiangiogenic/heparin-binding arginine dendrimer mimicking the surface of endostatin” (Bioorg Med Chem Lett, 2002).

SMILES strings stand for the structures.

The species named for test [1] is Gallus gallus. The test can be described thus: Antiangiogenic activity in chicken embryo chorioallantoic membrane assay, at 100 ug/CAM was determined. Format: functional, tissue-based.
The species named for test [2] is Gallus gallus. The test can be described thus: Antiangiogenic activity in chicken embryo chorioallantoic membrane assay, at 10 ug/CAM was determined. Format: functional, tissue-based.
For the next test, the species on record is Rattus norvegicus. Briefly: Salt concentration required for release from the heparin-agarose column was evaluated to determine the heparin- binding activity to inhibit the growth of rat lung endothelial(RLE) cells.

With `N=C(N)NCCCC(N)C(=O)NC(CCCNC(=N)N)C(=O)NCCCCC(NC(=O)C(CCCNC(=N)N)NC(=O)C(N)CCCNC(=N)N)C(=O)NCCCCC(NC(=O)C(CCCCNC(=O)C(CCCNC(=N)N)NC(=O)C(N)CCCNC(=N)N)NC(=O)C(CCCNC(=N)N)NC(=O)C(N)CCCNC(=N)N)C(=O)NCCCC(NC(=O)NCC(=O)O)NC(=O)C(CCCCNC(=O)C(CCCCNC(=O)C(CCCNC(=N)N)NC(=O)C(N)CCCNC(=N)N)NC(=O)C(CCCNC(=N)N)NC(=O)C(N)CCCNC(=N)N)NC(=O)C(CCCCNC(=O)C(CCCNC(=N)N)NC(=O)C(N)CCCNC(=N)N)NC(=O)C(CCCNC(=N)N)NC(=O)C(N)CCCNC(=N)N` (stereo not drawn), the inhibition was determined as 70% in the test filed under Gallus gallus [1] and 45.4% in the test listed under Gallus gallus [2]. The NaCl concentration in the test listed under Rattus norvegicus came out at 1.2 M.
